Data from US20250332125A1, “TREATMENT OF MODERATE AND SEVERE GASTROPARESIS” (priority 2016, published 2025).

What was measured:
Format in all cases: in vivo, human
[1] = system: adult female subjects with diabetic gastroparesis; assay: Phase 3 multicenter, randomized, double-blind, placebo-controlled study of metoclopramide nasal spray: symptom efficacy (GSA scores); design: Estimated Mean Change from Baseline in Mean Daily GSA Total Scores (LSMean from ANCOVA) / Mean Change from Baseline in Mean Daily Nausea Score (LSMean from ANCOVA): scale not given here; details: for Mean Change from Baseline in Mean Daily Nausea Score (LSMean from ANCOVA) / Mean Change from Baseline in Mean Daily Upper Abdominal Pain Score (LSMean from ANCOVA): ITT Population with Moderate to Severe Symptoms; for Estimated Mean Change from Baseline in Mean Daily GSA Total Scores (LSMean from ANCOVA): Baseline GSA >2.7 (BOCF)
Protocol: A multicenter, randomized, double-blind, placebo-controlled clinical study of intranasal metoclopramide (“IN MCP”) in female diabetic gastroparesis patients was carried out. The study explored the use of IN MCP for the relief of symptoms associated with acute and recurrent diabetic gastroparesis in adult women. […] The study was a U.S. multicenter, randomized, double-blind, placebo-controlled, parallel-group study of the efficacy and safety of IN MCP compared to placebo in adult female subjects with diabetic gastroparesis. Diabetic women with clinical symptoms attributed to diabetic gastroparesis, and documentation of delayed gastric emptying who met the protocol-specified entry criteria were randomized 1:1 in a parallel-group design to IN MCP (10 mg metoclopramide) or placebo administered as a single nasal spray four times daily; 30 minutes before meals and at bedtime for a total of four weeks. Eligible patients received a dose of IN MCP or placebo 30 minutes before meals and at bedtime daily. A total of 205 female gastroparesis patients were enrolled. Of the total, nearly half had been identified as having moderate to severe gastroparesis. […] Diabetic women with clinical symptoms attributed to diabetic gastroparesis and documentation of delayed gastric emptying who met the protocol-specified entry criteria were randomized to Metoclopramide Nasal Spray 10 mg or placebo administered as a single intranasal spray four (4) times daily; 30 minutes before meals and at bedtime for a total of four (4) weeks. Inclusion criteria included prior diagnosis of Type 1 or Type 2 diabetes, and diagnosis of diabetic gastroparesis with delayed gastric emptying. […]

[2] = Phase 3 study of metoclopramide nasal spray: safety, treatment-emergent adverse events
Protocol: The study was a U.S. multicenter, randomized, double-blind, placebo-controlled, parallel-group study of the efficacy and safety of IN MCP compared to placebo in adult female subjects with diabetic gastroparesis. Diabetic women with clinical symptoms attributed to diabetic gastroparesis, and documentation of delayed gastric emptying who met the protocol-specified entry criteria were randomized 1:1 in a parallel-group design to IN MCP (10 mg metoclopramide) or placebo administered as a single nasal spray four times daily; 30 minutes before meals and at bedtime for a total of four weeks. Eligible patients received a dose of IN MCP or placebo 30 minutes before meals and at bedtime daily.
Diabetic women with clinical symptoms attributed to diabetic gastroparesis and documentation of delayed gastric emptying who met the protocol-specified entry criteria were randomized to Metoclopramide Nasal Spray 10 mg or placebo administered as a single intranasal spray four (4) times daily; 30 minutes before meals and at bedtime for a total of four (4) weeks.

[3] = Tardive dyskinesia reports over the clinical development program; details: 1,311 exposed healthy volunteers and patients over the clinical development program
[4] = Week 1, 10 mg intranasal four times daily, N = 52
[5] = Week 2, 10 mg intranasal four times daily, N = 52
[6] = Week 3, 10 mg intranasal four times daily, N = 52
[7] = Week 4, 10 mg intranasal four times daily, N = 52
[8] = 10 mg intranasal four times daily, 4 weeks, N = 102

Reports of tardive dyskinesia [3]: no reports of tardive dyskinesia
SMILES: CCN(CC)CCNC(=O)c1cc(Cl)c(N)cc1OC [IN MCP, 4-amino-5-chloro-N-[2-(diethylamino)ethyl]-2-methoxybenzamide]
Mean Change from Baseline in Mean Daily Nausea Score (LSMean from ANCOVA) [1, 4]: −0.859
Mean Change from Baseline in Mean Daily Upper Abdominal Pain Score (LSMean from ANCOVA) [1, 4]: −0.641
Mean Change from Baseline in Mean Daily Nausea Score (LSMean from ANCOVA) [1, 5]: −1.149
Mean Change from Baseline in Mean Daily Upper Abdominal Pain Score (LSMean from ANCOVA) [1, 5]: −0.990
Mean Change from Baseline in Mean Daily Nausea Score (LSMean from ANCOVA) [1, 6]: −1.242
Mean Change from Baseline in Mean Daily Upper Abdominal Pain Score (LSMean from ANCOVA) [1, 6]: −1.194
Mean Change from Baseline in Mean Daily Nausea Score (LSMean from ANCOVA) [1, 7]: −1.404
Mean Change from Baseline in Mean Daily Upper Abdominal Pain Score (LSMean from ANCOVA) [1, 7]: −1.218
Estimated Mean Change from Baseline in Mean Daily GSA Total Scores (LSMean from ANCOVA) ([1]; ITT, Week 1, 10 mg intranasal four times daily, N = 52): −0.588
Estimated Mean Change from Baseline in Mean Daily GSA Total Scores (LSMean from ANCOVA) ([1]; ITT, Week 2, 10 mg intranasal four times daily, N = 52): −0.950
Estimated Mean Change from Baseline in Mean Daily GSA Total Scores (LSMean from ANCOVA) ([1]; ITT, Week 3, 10 mg intranasal four times daily, N = 52): −1.096
Estimated Mean Change from Baseline in Mean Daily GSA Total Scores (LSMean from ANCOVA) ([1]; ITT, Week 4, 10 mg intranasal four times daily, N = 52): −1.220
Estimated Mean Change from Baseline in Mean Daily GSA Total Scores (LSMean from ANCOVA) ([1]; Per Protocol, Week 1, 10 mg intranasal four times daily, N = 38): −0.623
Estimated Mean Change from Baseline in Mean Daily GSA Total Scores (LSMean from ANCOVA) ([1]; Per Protocol, Week 2, 10 mg intranasal four times daily, N = 38): −1.040
Estimated Mean Change from Baseline in Mean Daily GSA Total Scores (LSMean from ANCOVA) ([1]; Per Protocol, Week 3, 10 mg intranasal four times daily, N = 38): −1.286
Estimated Mean Change from Baseline in Mean Daily GSA Total Scores (LSMean from ANCOVA) ([1]; Per Protocol, Week 4, 10 mg intranasal four times daily, N = 38): −1.373
Efficacy versus placebo, change from baseline ([1]; all enrolled patients across all severities of disease (205 female patients), 10 mg intranasal q.i.d.): no statistically significant change from baseline in efficacy versus placebo
Efficacy compared to placebo ([1]; mild gastroparesis, intranasal, same treatment regimen): did not demonstrate statistically significant efficacy
Improvements in nausea and abdominal pain ([1]; patient segment with moderate to severe symptoms of gastroparesis, versus placebo): clinically and statistically significant improvements
Efficacy versus placebo (post-hoc analysis) ([1]; patients who entered the study with moderate to severe gastroparesis, 10 mg intranasal q.i.d.): statistically significant efficacy
Treatment-Emergent Adverse Event Epistaxis, number of subjects [2, 8]: 1 (1%)
Treatment-Emergent Adverse Event Epistaxis, percent of subjects [2, 8]: 1 (1%)
Treatment-Emergent Adverse Event Fatigue, number of subjects [2, 8]: 2 (2%)
Treatment-Emergent Adverse Event Fatigue, percent of subjects [2, 8]: 2 (2%)
Treatment-Emergent Adverse Event Headache, number of subjects [2, 8]: 5 (5%)
Treatment-Emergent Adverse Event Headache, percent of subjects [2, 8]: 5 (5%)
Treatment-Emergent Adverse Event Nasal discomfort, number of subjects [2, 8]: 1 (1%)
Treatment-Emergent Adverse Event Nasal discomfort, percent of subjects [2, 8]: 1 (1%)
Central nervous system (CNS) effects that have been associated with oral and parenteral metoclopramide ([2]; delivered as a nasal spray): no central nervous system (CNS) effects observed
Drug-related adverse effects ([2]; intranasal): no reported drug-related adverse effects
Overall safety results ([2]; nasal spray 10 mg four times daily, 4 weeks): no significant adverse effects
